Test results published in patent publication US20210253557A1, “SUBSTITUTED TRIAZOLE DERIVATIVES AND USES THEREOF” (Bayer Pharma Aktiengesellschaft, priority 2017, published 2021).
Counter-ions that a name gives are not always drawn.

Key:
human V2 receptor = target: T1, human V2 receptor (Homo sapiens, UniProt P30518); test: Cellular in vitro assay for determining vasopressin receptor activity (V2, CRE-luciferase); assay type: cell-based; conditions: CHO cell line transfected with the human V2 receptor; [Arg8]-vasopressin at EC50 concentration; read-out: IC50 hV2
T1 construct: expressed in transfected cells; host or cells: CHO K1 (ATCC) expressing firefly luciferase under a CRE-responsive promoter
Protocol: (§1) B-1. Cellular In Vitro Assay for Determining Vasopressin Receptor Activity
(§2) The identification of agonists and antagonists of the V1a and V2 vasopressin receptors from humans, rats and dogs as well as the quantification of the activity of the compounds of the invention is carried out using recombinant cell lines. These cell lines originally derive from a hamster's ovary epithelial cell (Chinese Hamster Ovary, CHO K1, ATCC: American Type Culture Collection, Manassas, Va. 20108, USA). The test cell lines constitutively express the human, rat or dog V1a or V2 receptors. In case of the Gαq-coupled V1a receptors, cells are also stably transfected with a modified form of the calcium-sensitive photoproteins aequorin (human and rat V1a) or obelin (dog V1a), which, after reconstitution with the cofactor coelenterazine, emit light when there are increases in free calcium concentrations [Rizzuto R, Simpson A W, Brini M, Pozzan T, Nature 358, 325-327 (1992); Illarionov B A, Bondar V S, Illarionova V A, Vysotski E S, Gene 153 (2), 273-274 (1995)]. The resulting vasopressin receptor cells react to stimulation of the recombinantly expressed V1a receptors by intracellular release of calcium ions, which can be quantified by the resulting photoprotein luminescence. The Gs-coupled V2 receptors are stably transfected into cell lines expressing the gene for firefly luciferase under control of a CRE-responsible promoter. Activation of V2 receptors induces the activation of the CRE-responsive promoter via cAMP increase, thereby inducing the expression of firefly luciferase. The light emitted by photoproteins of V1a cell lines as well as the light emitted by firefly luciferase of V2 cell lines corresponds to the activation or inhibition of the respective vasopressin receptor. The bioluminescence of the cell lines is detected using a suitable luminometer [Milligan G, Marshall F, Rees S, Trends in Pharmacological Sciences 17, 235-237 (1996)].
Vasopressin V2 receptor cell lines:
On the day before the assay, the cells are plated out in culture medium (DMEM/F12, 2% FCS, 2 mM glutamine, 10 mM HEPES) in 384-well microtiter plates and kept in a cell incubator (96% humidity, 5% v/v CO2, 37° C.). On the day of the assay, test compounds in various concentrations and the agonist [Arg^8]-vasopressin at EC50 concentration are added together to the wells, and plates are incubated for 3 hours in a cell incubator. Upon addition of the cell lysis reagent Triton™ and the substrate luciferin, luminescence of firefly luciferase is measured in a luminometer.
(§3) Table 1A below lists individual IC50 values for the compounds of the invention (including racemic mixtures as well as separated enantiomers) that were obtained from cell lines transfected with the human V1a or V2 receptor: […]

human V1a receptor = target: T2, human V1a receptor (Homo sapiens, UniProt P37288); test: Cellular in vitro assay for determining vasopressin receptor activity (V1a, aequorin luminescence); assay type: cell-based; conditions: for IC50: CHO cell line transfected with the human V1a receptor, [Arg8]-vasopressin at EC50 concentration, read-out: IC50 hV1a; for ratio IC50 hV2/hV1a: selectivity ratio of IC50 hV2 to IC50 hV1a
T2 construct: expressed in transfected cells; host or cells: CHO K1 (ATCC), also stably transfected with a modified aequorin
Protocol: as §1, §2
Vasopressin V1a receptor cell lines:
On the day before the assay, the cells are plated out in culture medium (DMEM/F12, 2% FCS, 2 mM glutamine, 10 mM HEPES, 5 μg/ml coelenterazine) in 384-well microtiter plates and kept in a cell incubator (96% humidity, 5% v/v CO2, 37° C.). On the day of the assay, test compounds in various concentrations are placed for 10 minutes in the wells of the microtiter plate before the agonist [Arg^8]-vasopressin at EC50 concentration is added. The resulting light signal is measured immediately in a luminometer.
as §3

T1 sequence (P30518 whole entry): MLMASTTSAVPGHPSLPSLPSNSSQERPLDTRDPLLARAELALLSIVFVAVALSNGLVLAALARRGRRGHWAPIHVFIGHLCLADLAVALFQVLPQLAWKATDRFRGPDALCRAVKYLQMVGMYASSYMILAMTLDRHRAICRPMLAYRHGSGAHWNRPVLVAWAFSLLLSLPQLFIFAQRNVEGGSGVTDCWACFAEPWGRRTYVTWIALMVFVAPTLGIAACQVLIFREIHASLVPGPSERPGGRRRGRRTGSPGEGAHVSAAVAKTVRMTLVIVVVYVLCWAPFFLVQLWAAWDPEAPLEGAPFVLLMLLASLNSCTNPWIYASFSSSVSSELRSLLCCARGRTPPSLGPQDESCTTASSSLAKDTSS
T2 sequence (P37288 whole entry): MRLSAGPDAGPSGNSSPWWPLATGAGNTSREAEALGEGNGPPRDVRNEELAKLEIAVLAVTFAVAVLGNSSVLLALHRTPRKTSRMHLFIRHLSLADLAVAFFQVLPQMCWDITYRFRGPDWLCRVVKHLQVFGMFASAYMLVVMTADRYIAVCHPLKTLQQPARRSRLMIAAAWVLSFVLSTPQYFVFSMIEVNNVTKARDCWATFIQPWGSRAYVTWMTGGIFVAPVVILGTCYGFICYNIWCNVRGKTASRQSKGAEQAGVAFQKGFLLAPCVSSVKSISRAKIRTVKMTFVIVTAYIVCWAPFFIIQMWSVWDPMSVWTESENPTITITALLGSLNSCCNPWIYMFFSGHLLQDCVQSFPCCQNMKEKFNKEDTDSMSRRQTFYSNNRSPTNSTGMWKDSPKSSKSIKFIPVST

SMILES	IC50 (human V2 receptor) [nM]	IC50 (human V1a receptor) [nM]	ratio IC50 hV2/hV1a (human V1a receptor)
CC(N)c1nc(Cn2nc(-c3ccc(Cl)cc3)n(C[C@H](O)C(F)(F)F)c2=O)nn1-c1cccc(F)c1 (mixture of isomers) [Example 53, 2-({5-[1-Aminoethyl]-1-(3-fluorophenyl)-1H-1,2,4-triazol-3-yl}methyl)-5-(4-chlorophenyl)-4-[(2S)-3,3,3-trifluoro-2-hydroxypropyl]-2,4-dihydro-3H-1,2,4-triazol-3-one trifluoroacetate]	5.29	18.3	0.3
Cc1ccccc1-n1nc(Cn2nc(-c3ccc(Cl)cc3)n(C[C@H](O)C(F)(F)F)c2=O)nc1C(C)N (mixture of isomers) [Example 59, 2-({5-[1-Aminoethyl]-1-(2-methylphenyl)-1H-1,2,4-triazol-3-yl}methyl)-5-(4-chlorophenyl)-4-[(2S)-3,3,3-trifluoro-2-hydroxypropyl]-2,4-dihydro-3H-1,2,4-triazol-3-one trifluoroacetate]	2.74	1.19	2.3
CC(N)c1nc(Cn2nc(-c3ccc(Cl)cc3)n(C[C@H](O)C(F)(F)F)c2=O)nn1-c1ccccc1Cl (mixture of isomers) [Example 60, 2-({5-[1-Aminoethyl]-1-(2-chlorophenyl)-1H-1,2,4-triazol-3-yl}methyl)-5-(4-chlorophenyl)-4-[(2S)-3,3,3-trifluoro-2-hydroxypropyl]-2,4-dihydro-3H-1,2,4-triazol-3-one trifluoroacetate]	3.17	0.74	4.3
CC(=O)NC(C)c1nc(Cn2nc(-c3ccc(Cl)cc3)n(C[C@H](O)C(F)(F)F)c2=O)nn1-c1ccccc1Cl (mixture of isomers) [Example 64, N-{1-[1-(2-Chlorophenyl)-3-({3-(4-chlorophenyl)-5-oxo-4-[(2S)-3,3,3-trifluoro-2-hydroxypropyl]-4,5-dihydro-1H-1,2,4-triazol-1-yl}methyl)-1H-1,2,4-triazol-5-yl]ethyl}acetamide]	17.7	1.8	9.8
CC(NS(C)(=O)=O)c1nc(Cn2nc(-c3ccc(Cl)cc3)n(C[C@H](O)C(F)(F)F)c2=O)nn1-c1ccccc1Cl (mixture of isomers) [Example 67, N-{1-[1-(2-Chlorophenyl)-3-({3-(4-chlorophenyl)-5-oxo-4-[(2S)-3,3,3-trifluoro-2-hydroxypropyl]-4,5-dihydro-1H-1,2,4-triazol-1-yl}methyl)-1H-1,2,4-triazol-5-yl]ethyl}methanesulfonamide]	2.43	0.83	2.9
CN1C(=O)CCC1c1nc(Cn2nc(-c3ccc(Cl)cc3)n(C[C@H](O)C(F)(F)F)c2=O)nn1-c1ccccc1Cl (mixture of isomers) [Example 70, 5-(4-Chlorophenyl)-2-{[1-(2-chlorophenyl)-5-(1-methyl-5-oxopyrrolidin-2-yl)-1H-1,2,4-triazol-3-yl]methyl}-4-[(2S)-3,3,3-trifluoro-2-hydroxypropyl]-2,4-dihydro-3H-1,2,4-triazol-3-one]	7.03	0.81	8.7
CC(NC(=O)C(F)(F)F)c1nc(Cn2nc(-c3ccc(Cl)cc3)n(C[C@H](O)C(F)(F)F)c2=O)nn1-c1ccccc1Cl (mixture of isomers) [Example 73, N-{1-[1-(2-Chlorophenyl)-3-({3-(4-chlorophenyl)-5-oxo-4-[(2S)-3,3,3-trifluoro-2-hydroxypropyl]-4,5-dihydro-1H-1,2,4-triazol-1-yl}methyl)-1H-1,2,4-triazol-5-yl]ethyl}-2,2,2-trifluoroacetamide]	8.6	1.56	5.5
CC(C)(C)OCC(N)c1nc(Cn2nc(-c3ccc(Cl)cc3)n(C[C@H](O)C(F)(F)F)c2=O)nn1-c1ccccc1Cl (mixture of isomers) [Example 80, 2-({5-[1-Amino-2-tert-butoxyethyl]-1-(2-chlorophenyl)-1H-1,2,4-triazol-3-yl}methyl)-5-(4-chlorophenyl)-4-[(2S)-3,3,3-trifluoro-2-hydroxypropyl]-2,4-dihydro-3H-1,2,4-triazol-3-one]	19	0.61	31.4
NC(CO)c1nc(Cn2nc(-c3ccc(Cl)cc3)n(C[C@H](O)C(F)(F)F)c2=O)nn1-c1ccccc1Cl (mixture of isomers) [Example 81, 2-({5-[1-Amino-2-hydroxyethyl]-1-(2-chlorophenyl)-1H-1,2,4-triazol-3-yl}methyl)-5-(4-chlorophenyl)-4-[(2S)-3,3,3-trifluoro-2-hydroxypropyl]-2,4-dihydro-3H-1,2,4-triazol-3-one hydrochloride]	7.95	1.25	6.4
CC(C)(C)OCC(NS(C)(=O)=O)c1nc(Cn2nc(-c3ccc(Cl)cc3)n(C[C@H](O)C(F)(F)F)c2=O)nn1-c1ccccc1Cl (mixture of isomers) [Example 82, N-{2-tert-Butoxy-1-[1-(2-chlorophenyl)-3-({3-(4-chlorophenyl)-5-oxo-4-[(2S)-3,3,3-trifluoro-2-hydroxypropyl]-4,5-dihydro-1H-1,2,4-triazol-1-yl}methyl)-1H-1,2,4-triazol-5-yl]ethyl}methanesulfonamide]	48	0.64	75.6
CS(=O)(=O)NC(CO)c1nc(Cn2nc(-c3ccc(Cl)cc3)n(C[C@H](O)C(F)(F)F)c2=O)nn1-c1ccccc1Cl (mixture of isomers) [Example 85, N-{1-[1-(2-Chlorophenyl)-3-({3-(4-chlorophenyl)-5-oxo-4-[(2S)-3,3,3-trifluoro-2-hydroxypropyl]-4,5-dihydro-1H-1,2,4-triazol-1-yl}methyl)-1H-1,2,4-triazol-5-yl]-2-hydroxyethyl}-methanesulfonamide]	2.25	0.35	6.4
CC(=O)NC(COC(C)(C)C)c1nc(Cn2nc(-c3ccc(Cl)cc3)n(C[C@H](O)C(F)(F)F)c2=O)nn1-c1ccccc1Cl (mixture of isomers) [Example 88, N-{2-tert-Butoxy-1-[1-(2-chlorophenyl)-3-({3-(4-chlorophenyl)-5-oxo-4-[(2S)-3,3,3-trifluoro-2-hydroxypropyl]-4,5-dihydro-1H-1,2,4-triazol-1-yl}methyl)-1H-1,2,4-triazol-5-yl]ethyl}acetamide]	45.5	1.5	30.3
CC(=O)NC(CO)c1nc(Cn2nc(-c3ccc(Cl)cc3)n(C[C@H](O)C(F)(F)F)c2=O)nn1-c1ccccc1Cl (mixture of isomers) [Example 91, N-{1-[1-(2-Chlorophenyl)-3-({3-(4-chlorophenyl)-5-oxo-4-[(2S)-3,3,3-trifluoro-2-hydroxypropyl]-4,5-dihydro-1H-1,2,4-triazol-1-yl}methyl)-1H-1,2,4-triazol-5-yl]-2-hydroxyethyl}acetamide]	8.9	0.71	12.5
CC(C)(C)OCC(NC(=O)C(F)(F)F)c1nc(Cn2nc(-c3ccc(Cl)cc3)n(C[C@H](O)C(F)(F)F)c2=O)nn1-c1ccccc1Cl (mixture of isomers) [Example 94, N-{2-tert-Butoxy-1-[1-(2-chlorophenyl)-3-({3-(4-chlorophenyl)-5-oxo-4-[(2S)-3,3,3-trifluoro-2-hydroxypropyl]-4,5-dihydro-1H-1,2,4-triazol-1-yl}methyl)-1H-1,2,4-triazol-5-yl]ethyl}-2,2,2-trifluoroacetamide]	27.5	1.1	25.0
